Tests used:
CCL-2 = test: Cell growth by Lowry protein determination after 80 hours in zinc-supplemented culture medium; format: cell-based, human; conditions: CCL-2, about 1.6 mg/l to about 4.0 mg/l of Zn⁺⁺
From the text: (§1) In the example, malignant transformed human cell lines obtained from the American Type Culture Collection, i.e., a human epithelial cervix carcinoma cell line, HeLa (ATCC No. CCL-2), a human adenocarcinoma carcinoma cell line of the colon, HT-29 (ATCC No. HTB-38) and a human adenocarcinoma carcinoma cell line of the breast, SK-BR-3 (ATCC No. HTB-30) were used. Non-transformed dipolid human fibroblast cells (MRC-5, ATCC No. CCL-171) were employed as a control. The cell lines were obtained from the American Type Culture Collection in a frozen condition. In order to reactivate the cells, the cells were subcultured in McCoy 5A (mod.) medium (Serva Company) containing 15% (v/v) fetal calf serum.
(§2) The reactivated cells were allowed to reach the logarithmic growth phase and then detrypsinized and harvested. The harvested cells were washed twice with McCoy 5A (mod.) medium containing 15% (v/v) fetal calf serum and then resuspended in the same medium at a concentration of 10⁶ cells per ml. The correct cell concentration was determined using a Neubeuer-Turk count chamber in which the viability of the cells was also determined by means of Trypan blue coloring (see: Freshney, I.R., Culture of Animal Cells, Alan Riss Publ. Co., New York, N.Y. (1983)).
(§3) To tubes containing 200,000 HTB-30 cells or 200,000 HTB-38 cells or 200,000 CCL-2 cells was added Cell Culture Medium Nos. 1, 2, 3, 4, 5, 6, 7, 8 or 9 described below and the cells were incubated for 80 hours. In addition, to tubes containing 200,000 human fibroblast cells (MRC-5) were added Cell Culture Medium Nos. 1, 2, 3, 4, 5, 6, 7, 8 or 9 described below and the cells were incubated for 80 hours. All of the cells were incubated at 36.5°C (± 0.5°C), 5% CO₂ and 95% air. Five duplicate tubes were employed for each cell culture medium for each cell.
(§4) After the end of the incubation time, the culture medium was removed and the cells were washed three times with Dulbecco buffer solution (see: Dulbecco, R.U., Vogt, M., J. Exp. Med. 98:167-182 (1954)). Next, the cells were dried and octyl phenol polyethylene glycol ether was added at a concentration of 0.2% (v/v) to each tube to which 20 µl of 1.0 N NaOH had been additionally added per ml.
(§5) After thorough mixing and allowing the samples to stand for 30 minutes at 20-25°C, 200 µl each of the resulting cell extracts were used for protein determinations according to the Lowry method (see: Lowry, O.H. et al., J. Biol. Chem. 193:265 (1951)).
(§6) The Control in the Table below refers to Cell Culture Medium No. 1 at 4°C to which no cells had been added. […] All growth values are mean values from the five duplicate tubes ± the standard deviation.
(§7) The growth value as a percent of the Control was determined according to the following formula: [formula]
(§8) In addition, in the Table, the mean adsorption values are determinative of the concentration of protein in the cells and were evaluated at 660 nm.

HTB-30 = test: as above; format: cell-based, human; conditions: HTB-30, about 1.6 mg/l to about 4.0 mg/l of Zn⁺⁺
From the text: as §1, §2, §3, §4, §5, §6, §7, §8

HTB-38 = test: as above; format: cell-based, human; conditions: for decrease in protein yield: compared to Cell Culture Medium No. 1, 4800 min
From the text: as §1, §2, §3, §4, §5, §6, §7, §8

Human Fibroblasts = test: Cell growth by Lowry protein determination after 80 hours in zinc-supplemented culture medium (non-transformed control cells); format: cell-based; conditions: about 1.6 mg/l to about 4.0 mg/l of Zn⁺⁺
From the text: as §1
The reactivated cells were allowed to reach the logarithmic growth phase and then detrypsinized and harvested. […] The correct cell concentration was determined using a Neubeuer-Turk count chamber in which the viability of the cells was also determined by means of Trypan blue coloring (see: Freshney, I.R., Culture of Animal Cells, Alan Riss Publ. Co., New York, N.Y. (1983)). […]
as §7, §8

[Cl-].[Cl-].[Zn+2] [bivalent zinc, ZnCl₂]
growth rate, expressed as protein concentration (CCL-2): inhibited
growth rate, expressed as protein concentration (HTB-30): inhibited
decrease in protein yield (HTB-38; HTB-38, 3.5 mg/l of Zn⁺⁺ (maximum growth suppression)): 41.8%
growth rate, expressed as protein concentration (HTB-38; HTB-38, about 1.6 mg/l to about 4.0 mg/l of Zn⁺⁺): inhibited
decrease in protein yield (HTB-38; HTB-38, about 2.1 mg/l of Zn⁺⁺): 24.8%
growth rate, expressed as protein concentration (Human Fibroblasts): not inhibited
